This passage reports ED50 and Ki results from US5652271A, “Therapeutic agents” (Knoll Aktiengesellschaft, priority 1993, dated 1997).

Structures can show the parent of a compound that is named as a salt. Where two headings read alike, the source gives them in different places.

Assay [1] concerns ptosis (eye closure) induced by reserpine. In words: prevention of ptosis (eye closure) induced by reserpine in rats. Type of assay: in vivo, rat (male, Charles River CD strain). An excerpt:
Male rats of the Charles River CD strain weighing between 140 and 180 g were randomly separated into five rats in each cage and supplied with food and water ad libitum. Eighteen hours prior to initiation of the test four of the five rats were marked with a pen such that each rat was individually identifiable; food was then withdrawn. The following morning, two hours before the test, the rats were weighed and a semi-randomised code was used to allocate treatments to rats. The test commenced by orally administering either:
The degree of ptosis was scored […] later using the following observer rating system: 0=eye fully open, 1=eye 1/4closed, 2=eye 1/2closed, 3=eye 3/4closed, 4=eye fully closed. A mean ptosis score was then calculated for all identically treated rats usually comprising a group of eight rats. […] It is widely understoodby those skilled in the art that this test is indicative of compounds having antidepressant activity in humans.

The target in the next assay is dopamine reuptake sites (Rattus norvegicus, UniProt P23977). Nature of the assay: inhibition of [3H]dopamine uptake in vitro in rat striatal synaptosomes. Type of assay: biochemical, rat (male Charles River). The conditions noted are these: [3H]dopamine (2.5 nM) uptake, 5 minutes at 37° C.; calculated from IC50; means ± sem of three independent determinations. On the procedure:
Striatal tissue from the brains of male Charles River rats weighing 150-250 g was homogenised in ice-cold 0.32M sucrose (1:10 w/v) using a motor driven teflon pestle (difference in diameter between mortar and pestle 0.5 mm). Nuclei and cell debris were removed by centrifugation at 1,500 g at 4° C. for 10 minutes. The pellet (P1) was discarded and the supernatant centrifuged at 18,000 g at 4° C. for 10 minutes. The crude synaptosomal pellet (P2) was resuspended in Krebs-Henseleit buffer (equivalent to 4.2 mg wet weight of tissue/ml).
Crude synaptosomes were incubated in a shaking water bath at 37° C. for 15 minutes. Aliquots (150 μl; equivalent to 0.625 mg wet weight of tissue/tube) were then added to tubes containing 275 μl of Krebs-Henseleit buffer and 50 μl of Krebs-Henseleit buffer (total uptake) or 50 μl of test compound (10 concentrations ranging from 10-11-10-4M) or 50 μl of GBR 12909 (10^-5M; non-specific uptake). Uptake was initiated by the addition of 25 μl of freshly prepared [3H]dopamine(2.5 nM), followed by vortexing and was continued for 5 minutes at 37° C. in the shaking water bath.
Uptake was terminated by filtration under vacuum through Skatron 11735 filters using a Skatron cell harvester. Filters were than washed with 8 ml ice-cold saline. The scored filter paper discs were punched into vials, scintillation fluid added and radioactivity determinedby liquid scintillation counting.
The percentage inhibition of specific uptake of the tritiated ligand was calculated for each concentration of test compound. Inhibition curves were then produced. The concentration of compounds which gave 50% inhibition of specific uptake (IC50) was obtained from the curve. The inhibition constant (Ki) was then calculated using the formula [formula] in which [L] is the concentration of tritiated ligand used and Km is the affinity of the uptake site for the ligand. The Ki values for compounds for formula I and III are given in Table 1 as the means ± sem of three independent determinations.

Setting [2] is: Rattus norvegicus, po, 3 h, dose causing 50% prevention of reserpine-induced ptosis, test compound oral, reserpine 0.75 mg/kg intravenous, scored three hours later, read-out: ED50.

Chain of dopamine reuptake sites (P23977 whole entry): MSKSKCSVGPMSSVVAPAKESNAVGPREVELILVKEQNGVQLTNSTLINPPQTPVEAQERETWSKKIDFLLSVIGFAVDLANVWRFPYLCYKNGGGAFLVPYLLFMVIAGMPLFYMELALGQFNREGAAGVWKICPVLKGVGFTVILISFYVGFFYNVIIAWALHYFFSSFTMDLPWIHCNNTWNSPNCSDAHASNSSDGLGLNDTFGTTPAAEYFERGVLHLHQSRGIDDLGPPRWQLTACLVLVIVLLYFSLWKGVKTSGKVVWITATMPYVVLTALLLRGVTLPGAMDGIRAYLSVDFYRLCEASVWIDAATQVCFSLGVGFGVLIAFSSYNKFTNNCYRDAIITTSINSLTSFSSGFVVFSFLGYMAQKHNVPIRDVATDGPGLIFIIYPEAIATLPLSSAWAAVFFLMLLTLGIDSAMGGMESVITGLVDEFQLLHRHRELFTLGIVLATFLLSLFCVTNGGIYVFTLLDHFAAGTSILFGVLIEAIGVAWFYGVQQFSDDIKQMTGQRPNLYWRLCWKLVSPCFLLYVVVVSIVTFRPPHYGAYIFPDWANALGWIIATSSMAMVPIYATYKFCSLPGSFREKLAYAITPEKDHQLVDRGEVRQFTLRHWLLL

Usually ED50 stands for the midpoint of the dose-response relation. Take `CN(C)CC[S+]([O-])CC(=O)C1(c2ccc(Cl)c(Cl)c2)CCC1.Cl` (stereo not drawn) [Example 2, 1-[1-(3,4-dichlorophenyl)cyclobutyl]-2-[2-(dimethylamino)ethylsulphinyl]ethanone hydrochloride]: the ED50 in assay [1] (setting [2]) worked out at 7.7 mg/kg. For orientation: Ki means a dissociation constant, usually derived from enzyme kinetics or from competition with a known ligand. For the molecule `CC(CSCC(O)C1(c2ccc(Cl)c(Cl)c2)CCC1)CN(C)C` (stereo not drawn) [Example 19, 1-[1-(3,4-dichlorophenyl)cyclobutyl]-2-[3-(dimethylamino)-2-methylpropylthio]ethanol], the ED50 in assay [1] (setting [2]) came out at 6.9 mg/kg. On dopamine reuptake sites, the Ki was 6.9 ± 0.6 nM. For `CN(C)CCCSCC(=O)C1(c2cccc(Cl)c2)CCC1.Cl` [Example 12, 1-[1-(3-chlorophenyl)cyclobutyl]-2-[3-(dimethylamino)propylthio]ethanone hydrochloride], the ED50 in assay [1] (setting [2]) was 23.4 mg/kg.

Consider `CN(C)CCSCC(=O)C1(c2ccc3ccccc3c2)CCC1.Cl` [Example 11, 2-[2-(dimethylamino)ethylthio]-1-[1-(2-naphthyl)cyclobutyl]ethanone hydrochloride], for which the 50% effective dose (ED50) in assay [1] (setting [2]) stood at 24.1 mg/kg. For `CN(C)CCCSCC(O)C1(c2ccc(Cl)c(Cl)c2)CCC1` (stereo not drawn) [Example 9, 1-[1-(3,4-dichlorophenyl)cyclobutyl]-2-[3-(dimethylamino)propyl-thio]ethanol], the ED50 in assay [1] (setting [2]) worked out at 4.8 mg/kg. In addition, the Ki on dopamine reuptake sites is 7.3 ± 1.6 nM. Consider `CN(CCSCC(=O)C1(c2ccc(Cl)c(Cl)c2)CCC1)Cc1ccccc1.Cl` [Example 5, 2-[2-(N-benzyl-N-methylamino)ethylthio]-1-[1-(3,4-dichlorophenyl)cyclobutyl]ethanone hydrochloride], for which, in assay [1] (setting [2]), the ED50 was found to be 16.4 mg/kg. As for `CC(CSCC(=O)C1(c2ccc(Cl)c(Cl)c2)CCC1)CN(C)C` (stereo not drawn) [Example 10, 1-[1-(3,4-dichlorophenyl)cyclobutyl]-2-[3-(dimethylamino)-2-methylpropylthio]ethanone], the ED50 in assay [1] (setting [2]) was 8.7 mg/kg. Also, the Ki at dopamine reuptake sites is 7.2 ± 1 nM.

For `CN(C)CCCCSCC(=O)C1(c2ccc(Cl)c(Cl)c2)CCC1.Cl` [Example 13, 1-[1-(3,4-dichlorophenyl)cyclobutyl]-2-[4-(dimethylamino)-butylthio]ethanone hydrochloride], the ED50 in assay [1] (setting [2]) is 5.9 mg/kg. Besides, the Ki on dopamine reuptake sites is 6.5 ± 1 nM. The molecule `CN(C)CCCSCC(O)C1(c2ccc(Cl)c(Cl)c2)CCC1.O=C(O)CC(O)(CC(=O)O)C(=O)O` (single isomer, unassigned; (+)) [Example 17, (+)-1-[1-(3,4-dichlorophenyl)cyclobutyl]-2-[3-(dimethylamino)-propylthio]ethanol citrate] came in with an ED50 in assay [1] (dose causing 50% prevention of reserpine-induced ptosis, test compound oral, reserpine 0.75 mg/kg intravenous, scored three hours later, citrate) of 2.5 mg/kg. With `CN(C)CCSCC(O)C1(c2ccc(Cl)c(Cl)c2)CCC1.Cl` (stereo not drawn) [Example 6, 1-[1-(3,4-dichlorophenyl)cyclobutyl]-2-[2-(dimethyl-amino)ethylthio]ethanol hydrochloride], the ED50 in assay [1] (setting [2]) was found to be 5.7 mg/kg.

`CN(C)CCCSCC(=O)C1(c2ccc(Cl)c(Cl)c2)CCC1.O=C(O)CC(O)(CC(=O)O)C(=O)O` [Example 18, 1-[1-(3,4-dichlorophenyl)cyclobutyl]-2-[3-(dimethylamino)propylthio]ethanone citrate]: it took a dose of 4.9 mg/kg to reach the 50% effect level in assay [1] (Rattus norvegicus, po, 3 h) (ED50). Also, the Ki on dopamine reuptake sites was 4.2 ± 0.4 nM. With `CN(C)CCCSCC(=O)C1(c2ccc(Cl)c(Cl)c2)CCCC1.Cl` [Example 20, 1-[1-(3,4-dichlorophenyl)cyclopentyl]-2-[3-(dimethylamino)propylthio]ethanone hydrochloride], in assay [1] (setting [2]), the ED50 amounted to 3.7 mg/kg. Also, the Ki on dopamine reuptake sites is 4.4 ± 0.2 nM. Take `CCN(CC)CCSCC(=O)C1(c2ccc(Cl)c(Cl)c2)CCC1` [Example 4, 1-[1-(3,4-dichlorophenyl)cyclobutyl]-2-[2-(diethylamino)ethylthio]ethanonehydrochloride]: in assay [1] (setting [2]), the ED50 turned out to be 9.7 mg/kg.

`CN(C)CCCSCC(O)C1(c2ccc(Cl)c(Cl)c2)CCC1.O=C(O)CC(O)(CC(=O)O)C(=O)O` (single isomer, unassigned; (-)) [Example 16, (-)-1-[1-(3,4-dichlorophenyl)cyclobutyl]-2-[3-(dimethylamino)propylthio]ethanol citrate]: the ED50 in assay [1] (setting [2]) turned out to be 2.2 mg/kg. On the same count and under the same terms, under `CN(C)CCSCC(=O)C1(c2ccc(Cl)c(Cl)c2)CCC1.Cl` [Example 1, 1-[1-(3,4-dichlorophenyl)cyclobutyl]-2-[2-(dimethyl-amino)ethylthio]ethanone hydrochloride] stands 8.5 mg/kg. On to `CN(C)CCCS(=O)(=O)CC(=O)C1(c2ccc(Cl)c(Cl)c2)CCC1.Cl` [Example 8, 1-[1-(3,4-dichlorophenyl)cyclobutyl]-2-[3-(dimethylamino)propylsulphonyl]ethanone hydrochloride], for which, in assay [1] (setting [2]), the ED50 was found to be 3.4 mg/kg. On dopamine reuptake sites, the Ki is 13.4 ± 0.1 nM. For the molecule `CCCN(CCC)CCCSCC(=O)C1(c2ccc(Cl)c(Cl)c2)CCC1` [Example 14, 1-[1-(3,4-dichlorophenyl)cyclobutyl]-2-[3-(dipropylamino)propylthio]ethanone], the ED50 in assay [1] (setting [2]) came to 7.3 mg/kg. For the same molecule, at dopamine reuptake sites, the Ki is 13.4 ± 2.1 nM. On the same counts, the results for `CN(C)CCCSCC(=O)C1(c2ccc(Cl)c(Cl)c2)CCC1.O=C(O)/C=C/C(=O)O` [Example 15, 1-[1-(3,4-dichloro-phenyl)cyclobutyl]-2-[3-(dimethylamino)propylthio]ethanone fumarate] are 4 mg/kg and 3.7 ± 0.4 nM. For `CN(C)CCCSCC(=O)C1(c2ccc(Cl)c(Cl)c2)CCC1.Cl` [Example 7, 1-[1-(3,4-dichlorophenyl)-cyclobutyl]-2-[3-(dimethylamino)propylthio]ethanone hydrochloride], in assay [1] (setting [2]), the ED50 is 4.2 mg/kg. Further, on dopamine reuptake sites, the Ki is 5 ± 0.5 nM. `CN(C)CCS(=O)(=O)CC(=O)C1(c2ccc(Cl)c(Cl)c2)CCC1.Cl` [Example 3, 1-[1-(3,4-dichlorophenyl)cyclobutyl]-2-[2-(dimethylamino)ethylsulphonyl]ethanone hydrochloride]: the ED50 in assay [1] (setting [2]) stood at 5.9 mg/kg.
